Experimental data taken from paper PMC3388857, “Synthesis and antiviral activities of spacer-linked 1-thioglucuronide analogues of glycyrrhizin” (Beilstein Journal of Organic Chemistry, 2012).

Tests used:
[1] = in vitro; details: dog, CC50 (cytotoxic concentration 50%), compound-treated uninfected MDCK cells, 48 h, cell viability
[2] = tested on: influenza A H3N2 virus; experiment: Antiviral activity in influenza A virus-infected MDCK cells (prevention of virus-induced cytopathicity, CellTiter-Glo, 48 h); assay type: cell-based, influenza A virus A/Aichi/2/68 (H3N2); details: for IC50: Influenza A virus, H3N2, MDCK, 48 h, MDCK cells infected with influenza A H3N2, MOI 0.05, compound added with virus, read-out: IC50 (half-maximal inhibitory concentration, antiviral activity); for fold more active compared to GL: ratio of antiviral IC50 values versus lead compound GL; for antiviral activity (in words): influenza A H3N2-infected MDCK cells, up to 250 µM
Method: For biological testing the compounds were dissolved in DMSO and diluted in cell culture medium to a maximum final DMSO concentration of 1%. For determination of the cytotoxicity of the compounds, MDCK cells were treated with compound concentrations ranging from 3.1 µM to 250 µM for 48 h and then cell viability was determined as a surrogate endpoint for cytotoxicity. […] GL was not toxic at 2500 µM (Table 1). The antiviral activity of the compounds was determined by infecting MDCK cells with influenza A H3N2 virus and treating them with different concentrations of compounds at the same time. […] Compound 16 containing only the N-succinyl substituent is a close analogue to CBX bearing an amide instead of the ester group. […] This was further supported by the data obtained with compound 23 containing a 1-thioethyl-linked glucuronic acid residue at position 3 of 1,2-dehydro-glycyrrhetinic acid.
The influenza A virus (IAV) was obtained from American Tissue Culture Collection (A/Aichi/2/68 (H3N2); VR-547). Virus stocks were prepared by propagation of virus on Mardin-Darby canine kidney (MDCK; ATCC CCL-34) cells and infectious titers of virus stocks were determined by the 50% tissue culture infective dose (TCID50) analysis as described in [5].
MDCK cells were seeded in 96-well plates at 2×10^4 cells/well using DMEM/Ham’s F-12 (1:1) medium containing 10% foetal bovine serum (FBS), 2 mM L-glutamine and 1% antibiotic– antimycotic solution (penicillin, 10.000 units/mL; streptomycin, sulfate 10 mg/mL; Amphotericin B, 25 µg/ml) (all from PAA). Until infection the cells were incubated for 5 h at 37 °C/5.0% CO2 to form a ~80% confluent monolayer on the bottom of the well. Test compounds were dissolved in DMSO and dilution series were prepared in infection medium (DMEM/Ham’s F-12 (1:1) containing 5 µg/mL trypsin (Sigma T4945), and 1% antibiotic–antimycotic solution) resulting in a final plate well DMSO concentration of 1%. The virus stock was generally diluted in infection medium (DMEM/Ham’s F-12 (1:1) containing 5 µg/mL trypsin, 1% DMSO, and 1% antibiotics) to a theoretical multiplicity of infection (MOI) of 0.05. After removal of the culture medium and one washing step with PBS, the virus and compound solution were added together to the cells. In the wells used for cytotoxicity determination (uninfected cells), the virus suspension was replaced by infection medium. Each treatment was conducted in two replicates. After incubation at 37 °C, […]
formation, or other notable abnormalities. Then, cell viability was determined by using CellTiter-Glo luminescent cell viability assay (Promega). The supernatant was removed carefully and 65 µL of the reconstituted reagent was added to each well and incubated for 15 min at room temperature under gentle shaking. Then, 60 µL of the solution was transferred to an opaque plate and luminescence (RLU) was measured by using a Synergy HT plate reader (Biotek). The […]
compounds were titrated on virus-infected MDCK cells and the response (RLU) was used to determine the IC50 value by using a 4-parameter logistic equation (GraphPad Prism) whereby the top and bottom of the curve were defined by the response (RLU) of untreated uninfected cells and untreated infected cells, respectively. The cytotoxicity of the compounds was determined by titration on uninfected MDCK cells, and the response (RLU) was used to determine the CC50 value by using a 4-parameter logistic equation whereby the top of the curve was defined by the response (RLU) of untreated uninfected cells. […]

[3] = tested on: MDCK cells; details: uninfected MDCK cells, 3.1 µM to 250 µM, 48 h

SMILES	CC50 [1]	IC50 [2]	fold more active compared to GL [2]	antiviral activity (in words) [2]	cytotoxicity (in words) [3]
COC(=O)[C@H]1O[C@@H](SCCN[C@H]2CC[C@@]3(C)C(CC[C@]4(C)C3C(=O)C=C3[C@@H]5C[C@@](C)(C(=O)O)CC[C@]5(C)CC[C@]34C)C2(C)C)[C@H](O)[C@@H](O)[C@@H]1O (some centres unmarked) [Compound 12]	> 250 µM	220 ± 41 µM	4.7 fold		
CC1(C)[C@@H](O[C@H]2O[C@H](C(=O)O)[C@@H](O)[C@H](O)[C@H]2O[C@@H]2O[C@H](C(=O)O)[C@@H](O)[C@H](O)[C@H]2O)CC[C@]2(C)[C@H]3C(=O)C=C4[C@@H]5C[C@@](C)(C(=O)O)CC[C@]5(C)CC[C@@]4(C)[C@]3(C)CC[C@@H]12 [GL, glycyrrhizin]	> 2500 µM	1030 ± 181 µM			
CC1(C)[C@@H](O)CC[C@]2(C)[C@H]3C(=O)C=C4[C@@H]5C[C@@](C)(C(=O)O)CC[C@]5(C)CC[C@@]4(C)[C@]3(C)CC[C@@H]12 [GA, glycyrrhetinic acid, reference compound]	7.4 ± 0.05 µM			did not show any antiviral activity at nontoxic concentrations	
CC1(C)C2CC[C@]3(C)C(C(=O)C=C4[C@@H]5C[C@@](C)(C(=O)O)CC[C@]5(C)CC[C@]43C)[C@@]2(C)CC[C@@H]1NCCS[C@@H]1O[C@H](C(=O)O)[C@@H](O)[C@H](O)[C@H]1O (some centres unmarked) [Compound 13]	> 250 µM	> 250 µM			
COC(=O)CCC(=O)N(CCS[C@@H]1O[C@H](C(=O)OC)[C@@H](O)[C@H](O)[C@H]1O)[C@H]1CC[C@@]2(C)C(CC[C@]3(C)C2C(=O)C=C2[C@@H]4C[C@@](C)(C(=O)O)CC[C@]4(C)CC[C@]23C)C1(C)C (some centres unmarked) [Compound 18]	> 250 µM	125 ± 15.9 µM	8 fold		
CC(=O)N(CCS[C@@H]1O[C@H](C(=O)O)[C@@H](O)[C@H](O)[C@H]1O)[C@H]1CC[C@@]2(C)C(CC[C@]3(C)C2C(=O)C=C2[C@@H]4C[C@@](C)(C(=O)O)CC[C@]4(C)CC[C@]23C)C1(C)C (some centres unmarked) [Compound 15]	> 250 µM	87 ± 7.9 µM		IC50 value in the same range as the methyl ester 14	
COC(=O)[C@H]1O[C@@H](SCCN(C(C)=O)[C@H]2CC[C@@]3(C)C(CC[C@]4(C)C3C(=O)C=C3[C@@H]5C[C@@](C)(C(=O)O)CC[C@]5(C)CC[C@]34C)C2(C)C)[C@H](O)[C@@H](O)[C@@H]1O (some centres unmarked) [Compound 14]		72.1 µM	approximately 14 fold		
CC1(C)C2CC[C@]3(C)C(C(=O)C=C4[C@@H]5C[C@@](C)(C(=O)O)CC[C@]5(C)CC[C@]43C)[C@@]2(C)CC[C@@H]1N(CCS[C@@H]1O[C@H](C(=O)O)[C@@H](O)[C@H](O)[C@H]1O)C(=O)CCC(=O)O (some centres unmarked) [Compound 19]	> 250 µM	> 250 µM			
CC1(C)[C@@H](OC(=O)CCC(=O)O)CC[C@]2(C)[C@H]3C(=O)C=C4[C@@H]5C[C@@](C)(C(=O)O)CC[C@]5(C)CC[C@@]4(C)[C@]3(C)CC[C@@H]12 [CBX, carbenoxolone, reference compound]	17.8 ± 2.3 µM			did not show any antiviral activity at nontoxic concentrations	toxic at low concentrations
CC1(C)C(SCCS[C@@H]2O[C@H](C(=O)O)[C@@H](O)[C@H](O)[C@H]2O)C=C[C@@]2(C)C1CC[C@]1(C)C2C(=O)C=C2[C@@H]3C[C@@](C)(C(=O)O)CC[C@]3(C)CC[C@]21C (some centres unmarked) [Compound 23]	> 250 µM	54 ± 13 µM			no cytotoxicity at the concentrations tested
CC1(C)C2CC[C@]3(C)C(C(=O)C=C4[C@@H]5C[C@@](C)(C(=O)O)CC[C@]5(C)CC[C@]43C)[C@@]2(C)CC[C@@H]1NC(=O)CCC(=O)O (some centres unmarked) [Compound 16, reference compound]	> 250 µM	> 250 µM		inactive	not toxic
